Consider one compound from ChEMBL document CHEMBL5729401, “Inhibitors of Rho associated coiled-coil containing protein kinase” (2022).

In this assay the target is Rho-associated protein kinase 2 (Homo sapiens, UniProt O75116). Put plainly: Z-lyte assay: Compounds activities were measured by Z'-lyte kinase kit (ThermoFisher Scientific). The percent inhibition rate was calculated by normalizing the kinase activity value obtained with 1 μM compound treatment against DMSO control value. IC50s were calculated using the GraphPad Prism software with kinase activities data that were collected from 9 points serial dilution of compounds treatment.
Rho-associated protein kinase 2, sequence (O75116 whole entry): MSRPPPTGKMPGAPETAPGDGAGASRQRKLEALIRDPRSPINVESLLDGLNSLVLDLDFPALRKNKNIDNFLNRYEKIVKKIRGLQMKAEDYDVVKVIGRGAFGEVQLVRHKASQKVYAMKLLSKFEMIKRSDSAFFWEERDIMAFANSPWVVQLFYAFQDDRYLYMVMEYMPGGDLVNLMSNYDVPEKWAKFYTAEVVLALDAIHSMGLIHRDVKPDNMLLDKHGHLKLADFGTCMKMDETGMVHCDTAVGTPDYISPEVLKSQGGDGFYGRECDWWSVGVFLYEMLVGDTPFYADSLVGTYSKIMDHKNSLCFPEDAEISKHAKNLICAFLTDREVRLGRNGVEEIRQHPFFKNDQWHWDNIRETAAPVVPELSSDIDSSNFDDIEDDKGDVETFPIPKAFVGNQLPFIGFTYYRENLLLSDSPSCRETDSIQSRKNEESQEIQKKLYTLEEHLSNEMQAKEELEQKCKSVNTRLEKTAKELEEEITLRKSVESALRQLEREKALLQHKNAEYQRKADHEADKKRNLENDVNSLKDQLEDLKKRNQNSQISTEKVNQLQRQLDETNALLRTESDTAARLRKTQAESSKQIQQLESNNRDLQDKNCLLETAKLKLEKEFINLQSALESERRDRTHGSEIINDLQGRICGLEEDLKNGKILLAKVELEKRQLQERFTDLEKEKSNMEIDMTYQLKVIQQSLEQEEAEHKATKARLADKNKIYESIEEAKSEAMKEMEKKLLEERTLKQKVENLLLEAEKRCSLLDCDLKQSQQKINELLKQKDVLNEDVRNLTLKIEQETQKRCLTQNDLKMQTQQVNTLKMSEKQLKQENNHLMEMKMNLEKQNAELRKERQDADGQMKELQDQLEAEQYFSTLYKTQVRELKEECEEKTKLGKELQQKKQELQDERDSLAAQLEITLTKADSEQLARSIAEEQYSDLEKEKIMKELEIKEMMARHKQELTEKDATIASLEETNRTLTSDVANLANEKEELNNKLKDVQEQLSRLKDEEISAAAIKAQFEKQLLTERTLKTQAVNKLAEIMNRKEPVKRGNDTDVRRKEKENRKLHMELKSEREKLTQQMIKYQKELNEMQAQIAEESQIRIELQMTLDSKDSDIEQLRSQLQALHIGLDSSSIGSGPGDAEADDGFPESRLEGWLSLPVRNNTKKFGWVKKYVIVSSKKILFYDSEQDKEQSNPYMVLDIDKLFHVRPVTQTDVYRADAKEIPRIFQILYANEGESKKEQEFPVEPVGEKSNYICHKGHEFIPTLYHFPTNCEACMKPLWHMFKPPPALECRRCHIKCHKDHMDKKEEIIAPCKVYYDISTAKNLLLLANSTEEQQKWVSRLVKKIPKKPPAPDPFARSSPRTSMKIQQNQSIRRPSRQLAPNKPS

Broadly, the IC50 is the concentration that gives 50% inhibition. On to `CNC(C(=O)Nc1ccc(-c2cn[nH]c2)cc1)c1ccc(OC)c(F)c1` (stereo unspecified), for which the IC50 was 21 nM.
